Results as given in the NIST ThermoML archive (doi:10.1016/j.fluid.2014.04.002).

Key:
[1] = 101 kPa, Liquid; for viscosity: Concentric cylinders viscometry; for mass density: Vibrating tube method
[2] = refractive index (Na D-line) (dimensionless); details: 101.33 kPa, Liquid, Standard Abbe refractometry
[3] = xn = mol fraction of the nth substance listed; details: 101 kPa, Liquid, x2 = 0; for viscosity: Concentric cylinders viscometry; for mass density: Vibrating tube method
[4] = refractive index (Na D-line) (dimensionless); xn = mol fraction of the nth substance listed; details: 101 kPa, Liquid, Standard Abbe refractometry, x2 = 0

COCCOCCOCCOCCOC [2,5,8,11,14-pentaoxapentadecane]
Details | mass density, [1] [kg/m3] | refractive index, [2] | viscosity, [1] [mPa·s]
288.15 K | 1016.7 | 1.43553 | 4.353
293.15 K | 1012.06 | 1.43338 | 3.795
298.15 K | 1007.42 | 1.43123 | 3.348
303.15 K | 1002.79 | 1.42906 | 2.983
308.15 K | 998.153 | 1.42697 | 2.668
313.15 K | 993.523 | 1.42447 | 2.407
318.15 K | 988.892 | 1.42206 | 2.185
323.15 K | 984.262 | 1.41985 | 2.003

OCCCO [propan-1,3-diol]
Details | mass density, [1] [kg/m3] | refractive index, [2] | viscosity, [1] [mPa·s]
288.15 K | 1055.89 | 1.44091 | 67.3
293.15 K | 1052.8 | 1.43949 | 52.52
298.15 K | 1049.69 | 1.43808 | 41.51
303.15 K | 1046.57 | 1.43667 | 33.2
308.15 K | 1043.43 | 1.43526 | 26.86
313.15 K | 1040.28 | 1.43384 | 21.97
318.15 K | 1037.11 | 1.43243 | 18.14
323.15 K | 1033.91 | 1.43101 | 15.2

C1CCOC1 [tetrahydrofuran] + CCOC(=O)C(C)O
Details | mass density, [3] [kg/m3] | refractive index, [4] | viscosity, [3] [mPa·s]
288.15 K | 893.293 | 1.41005 | 0.5252
293.15 K | 887.865 | 1.40737 | 0.5048
298.15 K | 882.403 | 1.40472 | 0.4847
303.15 K | 876.911 | 1.40203 | 0.464
308.15 K | 871.384 | 1.39931 | 0.4433
313.15 K | 865.82 | 1.39659 | 0.4227
318.15 K | 860.213 | 1.3938 | 0.4005
323.15 K | 854.558 | 1.39098 | 0.3636

C1CCOC1 [tetrahydrofuran]
Details | mass density, [1] [kg/m3] | refractive index, [2] | viscosity, [1] [mPa·s]
288.15 K | 893.293 | 1.41005 | 0.5252
293.15 K | 887.865 | 1.40737 | 0.5048
298.15 K | 882.403 | 1.40472 | 0.4847
303.15 K | 876.911 | 1.40203 | 0.464
308.15 K | 871.384 | 1.39931 | 0.4433
313.15 K | 865.82 | 1.39659 | 0.4227
318.15 K | 860.213 | 1.3938 | 0.4005
323.15 K | 854.558 | 1.39098 | 0.3636

CC(O)CO (stereo not given) [1,2-propanediol]
Details | mass density, [1] [kg/m3] | refractive index, [2] | viscosity, [1] [mPa·s]
288.15 K | 1039.87 | 1.43437 | 82.54
293.15 K | 1036.25 | 1.4327 | 56.62
298.15 K | 1032.59 | 1.43102 | 44.03
303.15 K | 1028.88 | 1.42934 | 33.16
308.15 K | 1025.14 | 1.42764 | 25.45
313.15 K | 1021.35 | 1.42591 | 19.85
318.15 K | 1017.52 | 1.4242 | 15.73
323.15 K | 1013.66 | 1.42246 | 12.64
